The target in test [1] is T1, Adrenergic receptor alpha-1 (Rattus norvegicus, UniProt P15823+P23944+P43140).
T1 sequence (P15823 whole entry): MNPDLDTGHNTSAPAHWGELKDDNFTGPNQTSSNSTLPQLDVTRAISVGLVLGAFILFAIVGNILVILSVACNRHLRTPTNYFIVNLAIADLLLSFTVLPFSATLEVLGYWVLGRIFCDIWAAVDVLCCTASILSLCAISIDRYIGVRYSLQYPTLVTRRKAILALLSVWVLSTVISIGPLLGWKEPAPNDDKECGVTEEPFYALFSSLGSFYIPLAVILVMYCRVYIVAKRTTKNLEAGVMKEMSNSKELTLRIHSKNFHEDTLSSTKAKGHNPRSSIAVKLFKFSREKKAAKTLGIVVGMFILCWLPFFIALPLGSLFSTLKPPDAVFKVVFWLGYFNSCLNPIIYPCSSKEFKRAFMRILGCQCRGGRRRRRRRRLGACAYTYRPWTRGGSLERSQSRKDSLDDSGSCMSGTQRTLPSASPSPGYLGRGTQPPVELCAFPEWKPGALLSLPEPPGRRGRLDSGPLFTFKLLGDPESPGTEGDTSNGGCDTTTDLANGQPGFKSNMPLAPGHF
T1 sequence (P23944 whole entry): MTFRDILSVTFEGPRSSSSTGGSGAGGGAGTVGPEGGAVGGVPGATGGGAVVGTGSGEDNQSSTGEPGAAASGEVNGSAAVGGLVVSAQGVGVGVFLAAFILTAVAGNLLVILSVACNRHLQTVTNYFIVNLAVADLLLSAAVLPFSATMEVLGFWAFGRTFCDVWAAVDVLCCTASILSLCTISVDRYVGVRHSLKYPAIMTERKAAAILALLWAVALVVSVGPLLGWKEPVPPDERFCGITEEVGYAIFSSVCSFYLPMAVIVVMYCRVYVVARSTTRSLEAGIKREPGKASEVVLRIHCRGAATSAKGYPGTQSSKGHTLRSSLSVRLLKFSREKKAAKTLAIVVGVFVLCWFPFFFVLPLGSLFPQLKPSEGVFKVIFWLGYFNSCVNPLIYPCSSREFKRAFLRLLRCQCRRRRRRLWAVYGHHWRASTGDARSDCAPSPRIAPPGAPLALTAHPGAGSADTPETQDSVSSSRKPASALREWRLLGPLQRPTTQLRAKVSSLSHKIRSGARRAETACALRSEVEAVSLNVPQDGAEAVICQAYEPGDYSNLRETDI
T1 sequence (P43140 whole entry): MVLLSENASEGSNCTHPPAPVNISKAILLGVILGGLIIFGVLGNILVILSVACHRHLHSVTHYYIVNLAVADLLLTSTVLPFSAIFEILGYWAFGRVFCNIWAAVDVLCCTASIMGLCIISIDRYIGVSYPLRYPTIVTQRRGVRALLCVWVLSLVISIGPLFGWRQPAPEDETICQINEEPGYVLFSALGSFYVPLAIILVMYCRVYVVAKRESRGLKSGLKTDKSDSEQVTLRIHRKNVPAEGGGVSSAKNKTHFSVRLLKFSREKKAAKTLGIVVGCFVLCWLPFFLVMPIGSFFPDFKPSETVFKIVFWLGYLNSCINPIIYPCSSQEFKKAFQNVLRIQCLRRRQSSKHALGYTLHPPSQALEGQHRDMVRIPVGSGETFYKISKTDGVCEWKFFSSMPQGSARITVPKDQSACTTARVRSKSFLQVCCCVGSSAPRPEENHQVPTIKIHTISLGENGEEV
As to the kind of experiment: Inhibition of [3H]prazosin binding to rat cortex Alpha 1 receptor.

Test [2] has as its target T2, Adrenergic receptor alpha-2 (Rattus norvegicus, UniProt P22086+P19328+P22909).
T2 sequence (P22086 whole entry): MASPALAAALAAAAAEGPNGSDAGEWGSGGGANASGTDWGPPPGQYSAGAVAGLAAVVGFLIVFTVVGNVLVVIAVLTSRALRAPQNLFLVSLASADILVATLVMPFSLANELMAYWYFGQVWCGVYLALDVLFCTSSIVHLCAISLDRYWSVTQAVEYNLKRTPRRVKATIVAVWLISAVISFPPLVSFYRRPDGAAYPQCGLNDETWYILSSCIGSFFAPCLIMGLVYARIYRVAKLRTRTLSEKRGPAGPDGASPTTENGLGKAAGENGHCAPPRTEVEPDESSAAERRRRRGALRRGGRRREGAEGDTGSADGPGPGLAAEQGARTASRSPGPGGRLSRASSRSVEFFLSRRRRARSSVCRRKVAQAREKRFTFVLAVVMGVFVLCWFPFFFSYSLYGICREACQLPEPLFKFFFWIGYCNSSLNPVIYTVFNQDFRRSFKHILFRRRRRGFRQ
T2 sequence (P19328 whole entry): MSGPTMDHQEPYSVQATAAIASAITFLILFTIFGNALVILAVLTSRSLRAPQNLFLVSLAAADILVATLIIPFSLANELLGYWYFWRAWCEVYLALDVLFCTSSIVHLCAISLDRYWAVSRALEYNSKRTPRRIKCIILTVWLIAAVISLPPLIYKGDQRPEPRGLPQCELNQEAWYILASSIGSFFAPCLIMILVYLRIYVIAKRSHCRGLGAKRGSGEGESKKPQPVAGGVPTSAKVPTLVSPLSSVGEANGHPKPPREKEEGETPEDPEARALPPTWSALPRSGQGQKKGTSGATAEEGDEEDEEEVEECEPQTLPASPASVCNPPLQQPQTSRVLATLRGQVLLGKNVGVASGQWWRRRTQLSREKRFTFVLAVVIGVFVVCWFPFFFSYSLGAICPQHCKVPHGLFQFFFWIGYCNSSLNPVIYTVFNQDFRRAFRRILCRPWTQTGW
T2 sequence (P22909 whole entry): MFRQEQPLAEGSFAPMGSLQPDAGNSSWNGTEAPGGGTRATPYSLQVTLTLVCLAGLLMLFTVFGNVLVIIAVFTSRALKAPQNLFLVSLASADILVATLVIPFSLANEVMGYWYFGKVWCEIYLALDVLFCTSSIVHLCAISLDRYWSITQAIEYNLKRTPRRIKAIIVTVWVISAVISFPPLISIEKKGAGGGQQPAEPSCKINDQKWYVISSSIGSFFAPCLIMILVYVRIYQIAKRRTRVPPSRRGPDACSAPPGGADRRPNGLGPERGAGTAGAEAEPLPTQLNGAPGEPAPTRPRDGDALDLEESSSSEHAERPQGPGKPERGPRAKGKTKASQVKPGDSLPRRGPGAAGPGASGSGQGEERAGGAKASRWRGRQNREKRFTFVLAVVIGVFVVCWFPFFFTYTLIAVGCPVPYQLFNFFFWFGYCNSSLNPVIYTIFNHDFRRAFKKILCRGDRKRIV
In words: Inhibition of [3H]RX-821002 binding to rat cortex Alpha 2 receptor.

The nature of test [3]: Inhibition of [3H]- LSD binding to 5-HT5 receptor expressed in CHO cells. It is filed as cell-based.
Test [4] concerns the target Serotonin 3 (5-HT3) receptor. In words: Inhibition of [3H]GR-65630 binding to rabbit ileum muscularis 5-HT3 receptor. It is filed as tissue-based, Oryctolagus cuniculus.
Test [5] deals with T3, 5-hydroxytryptamine receptor 6 (Rattus norvegicus, UniProt P31388). As to the kind of experiment: Inhibition of [3H]5-HT binding to rat 5-HT6 receptor.
T3 sequence (P31388 whole entry): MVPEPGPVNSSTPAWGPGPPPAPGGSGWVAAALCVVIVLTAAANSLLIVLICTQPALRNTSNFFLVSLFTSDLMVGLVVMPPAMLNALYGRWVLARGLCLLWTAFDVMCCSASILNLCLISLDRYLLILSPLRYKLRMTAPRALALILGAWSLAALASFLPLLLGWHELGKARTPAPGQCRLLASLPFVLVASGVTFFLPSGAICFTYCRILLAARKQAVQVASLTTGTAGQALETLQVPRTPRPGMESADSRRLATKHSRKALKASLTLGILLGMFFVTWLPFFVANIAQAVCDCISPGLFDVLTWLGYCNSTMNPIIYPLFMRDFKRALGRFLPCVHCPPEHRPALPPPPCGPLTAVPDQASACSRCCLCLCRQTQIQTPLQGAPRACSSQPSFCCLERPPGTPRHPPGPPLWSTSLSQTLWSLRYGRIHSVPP
Test [6] concerns the target T3, 5-hydroxytryptamine receptor 6. In words: Inhibition of [3H]-5-HT binding to rat 5-HT6 receptor.

The Ki is a dissociation constant, usually derived from enzyme kinetics or from competition with a known ligand. A low value points to higher affinity. What is called IC50 is the concentration that inhibits the measured activity by half.

On to `COc1cccc(OC)c1-c1cccc2c1CC[C@H](N(C)C)C2`, for which the Ki in test [1] was 3670 nM; in test [2], 188 nM; in test [3] it was 65 nM. For the same compound, the IC50 in test [4] and in test [5] was above 1000 nM throughout.
With `CCCN(CCC)[C@H]1CCc2c(cccc2-c2c(OC)cccc2OC)C1`, the Ki in test [1] is above 1000 nM; in test [2], 2090 nM; in test [6], above 900 nM.

For the origin of these results see ChEMBL document CHEMBL1138658, “Novel 2-aminotetralin and 3-aminochroman derivatives as selective serotonin 5-HT7 receptor agonists and antagonists” (J Med Chem, 2004).
